{"source": "ChEMBL document CHEMBL5537115", "about": "“New broad-spectrum and potent antibacterial agents with dual-targeting mechanism: Promoting FtsZ polymerization and disrupting bacterial membranes” (Eur J Med Chem, 2024)", "key": {"[1]": {"tested_on": "Acinetobacter baumannii", "experiment": "Selectivity ratio of MBC for Acinetobacter baumannii ATCC19606 to MIC for Acinetobacter baumannii ATCC19606", "type": "functional"}, "[2]": {"tested_on": "Acinetobacter baumannii", "experiment": "Antibacterial activity against Acinetobacter baumannii ATCC19606 incubated for 18 to 24 hrs", "type": "functional", "conditions": "time 18-24 hrs"}, "[3]": {"tested_on": "Staphylococcus aureus", "experiment": "Selectivity ratio of MBC for Staphylococcus aureus clinical isolate to MIC for Staphylococcus aureus clinical isolate", "type": "functional"}, "[4]": {"tested_on": "Staphylococcus aureus", "experiment": "Antibacterial activity against Staphylococcus aureus clinical isolate incubated for 18 to 24 hrs", "type": "functional", "conditions": "time 18-24 hrs"}, "[5]": {"tested_on": "Staphylococcus aureus", "experiment": "Selectivity ratio of MBC for methicillin-resistant Staphylococcus aureus ATCC43300 to MIC for methicillin-resistant Staphylococcus aureus ATCC43300", "type": "functional"}, "[6]": {"tested_on": "Bacillus subtilis", "experiment": "Selectivity ratio of MBC for penicillin-susceptible Bacillus subtilis ATCC9372 to MIC for penicillin-susceptible Bacillus subtilis ATCC9372", "type": "functional"}, "[7]": {"tested_on": "Bacillus subtilis", "experiment": "Antibacterial activity against penicillin-susceptible Bacillus subtilis ATCC9372 incubated for 18 to 24 hrs", "type": "functional", "conditions": "time 18-24 hrs"}, "[8]": {"tested_on": "Staphylococcus aureus", "experiment": "Antibacterial activity against methicillin-resistant Staphylococcus aureus ATCC43300 incubated for 18 to 20 hrs", "type": "functional", "conditions": "time 18-20 hrs"}, "[9]": {"tested_on": "Staphylococcus aureus", "experiment": "Selectivity ratio of MBC for erythromycin-susceptible Staphylococcus aureus ATCC25923 to MIC for erythromycin-susceptible Staphylococcus aureus ATCC25923", "type": "functional"}, "[10]": {"tested_on": "Staphylococcus aureus", "experiment": "Antibacterial activity against erythromycin-susceptible Staphylococcus aureus ATCC25923 incubated for 18 to 24 hrs", "type": "functional", "conditions": "time 18-24 hrs"}, "[11]": {"tested_on": "Streptococcus pyogenes", "experiment": "Antibacterial activity against erythromycin-resistant Streptococcus pyogenes 2 clinical isolate assessed as bacterial growth inhibition incubated for 20 hrs by CLSI based broth microdilution method", "type": "functional"}, "[12]": {"tested_on": "Staphylococcus epidermidis", "experiment": "Antibacterial activity against penicillin-resistant Staphylococcus epidermidis clinical isolate assessed as bacterial growth inhibition incubated for 20 hrs by CLSI based broth microdilution method", "type": "functional"}, "[13]": {"tested_on": "Staphylococcus aureus", "experiment": "Antibacterial activity against Staphylococcus aureus clinical isolate assessed as bacterial growth inhibition incubated for 20 hrs by CLSI based broth microdilution method", "type": "functional"}, "[14]": {"tested_on": "Staphylococcus aureus", "experiment": "Antibacterial activity against penicillin-resistant Staphylococcus aureus ATCC31007 assessed as bacterial growth inhibition incubated for 20 hrs by CLSI based broth microdilution method", "type": "functional"}, "[15]": {"tested_on": "Staphylococcus aureus", "experiment": "Antibacterial activity against methicillin-resistant Staphylococcus aureus ATCC43300 assessed as bacterial growth inhibition incubated for 20 hrs by CLSI based broth microdilution method", "type": "functional"}, "[16]": {"tested_on": "Klebsiella pneumoniae", "experiment": "Antibacterial activity against Klebsiella pneumoniae ATCC BAA-1902 assessed as bacterial growth inhibition incubated for 20 hrs by CLSI based broth microdilution method", "type": "functional"}, "[17]": {"tested_on": "Acinetobacter baumannii", "experiment": "Antibacterial activity against Acinetobacter baumannii ATCC19606 assessed as bacterial growth inhibition incubated for 20 hrs by CLSI based broth microdilution method", "type": "functional"}, "[18]": {"tested_on": "Escherichia coli", "experiment": "Antibacterial activity against wild-type Escherichia coli BW25113 assessed as bacterial growth inhibition incubated for 20 hrs by CLSI based broth microdilution method", "type": "functional"}, "[19]": {"tested_on": "Escherichia coli", "experiment": "Antibacterial activity against penicillin-susceptible Escherichia coli ATCC25922 assessed as bacterial growth inhibition incubated for 20 hrs by CLSI based broth microdilution method", "type": "functional"}, "[20]": {"tested_on": "Enterococcus faecium", "experiment": "Antibacterial activity against vancomycin-susceptible Enterococcus faecium ATCC19434 assessed as bacterial growth inhibition incubated for 20 hrs by CLSI based broth microdilution method", "type": "functional"}, "[21]": {"tested_on": "Enterococcus faecalis", "experiment": "Antibacterial activity against vancomycin-susceptible Enterococcus faecalis ATCC29212 assessed as bacterial growth inhibition incubated for 20 hrs by CLSI based broth microdilution method", "type": "functional"}, "[22]": {"tested_on": "Streptococcus pyogenes", "experiment": "Antibacterial activity against erythromycin-susceptible Streptococcus pyogenes 1 assessed as bacterial growth inhibition incubated for 20 hrs by CLSI based broth microdilution method", "type": "functional"}, "[23]": {"tested_on": "Staphylococcus aureus", "experiment": "Antibacterial activity against erythromycin-susceptible Staphylococcus aureus ATCC25923 assessed as bacterial growth inhibition incubated for 20 hrs by CLSI based broth microdilution method", "type": "functional"}, "[24]": {"tested_on": "Bacillus pumilus", "experiment": "Antibacterial activity against penicillin-susceptible Bacillus pumilus CMCC63202 assessed as bacterial growth inhibition incubated for 20 hrs by CLSI based broth microdilution method", "type": "functional"}, "[25]": {"tested_on": "Bacillus subtilis", "experiment": "Antibacterial activity against penicillin-susceptible Bacillus subtilis ATCC9372 assessed as bacterial growth inhibition incubated for 20 hrs by CLSI based broth microdilution method", "type": "functional"}, "[26]": {"tested_on": "Enterococcus faecalis", "experiment": "Antibacterial activity against vancomycin-resistant Enterococcus faecalis ATCC51299 assessed as bacterial growth inhibition incubated for 20 hrs by CLSI based broth microdilution method", "type": "functional"}, "[27]": {"tested_on": "Enterococcus faecium", "experiment": "Antibacterial activity against vancomycin-resistant Enterococcus faecium ATCC51559 assessed as bacterial growth inhibition incubated for 20 hrs by CLSI based broth microdilution method", "type": "functional"}, "[28]": {"tested_on": "Staphylococcus aureus", "experiment": "Induction of resistance development in Staphylococcus aureus ATCC25923 assessed as fold increase in MIC at 0.5 times MIC measured after 32 days by multi-passage resistance assay relative to control", "type": "functional", "conditions": "time 32.0 day"}, "[29]": {"tested_on": "Staphylococcus aureus", "experiment": "Inhibition of biofilm formation of Staphylococcus aureus ATCC25923 incubated for 20 hrs by crystal violet staining based analysis", "type": "functional, organism-based"}, "[30]": {"tested_on": "Staphylococcus aureus", "experiment": "Inhibition of biofilm formation of Staphylococcus aureus ATCC25923 at 0.5 ug/ml incubated for 20 hrs by crystal violet staining based analysis relative to control", "type": "functional"}, "[31]": {"tested_on": "Bacillus subtilis", "experiment": "Induction of morphological change in Bacillus subtilis ATCC9372 assessed as increase in cell length at 0.5 times MIC by phase contrast microscopy", "type": "functional, organism-based"}, "[32]": {"biological_target": "T1, Cell division protein FtsZ (Bacillus subtilis) (UniProt A5Z1V5)", "T1 sequence (whole entry)": "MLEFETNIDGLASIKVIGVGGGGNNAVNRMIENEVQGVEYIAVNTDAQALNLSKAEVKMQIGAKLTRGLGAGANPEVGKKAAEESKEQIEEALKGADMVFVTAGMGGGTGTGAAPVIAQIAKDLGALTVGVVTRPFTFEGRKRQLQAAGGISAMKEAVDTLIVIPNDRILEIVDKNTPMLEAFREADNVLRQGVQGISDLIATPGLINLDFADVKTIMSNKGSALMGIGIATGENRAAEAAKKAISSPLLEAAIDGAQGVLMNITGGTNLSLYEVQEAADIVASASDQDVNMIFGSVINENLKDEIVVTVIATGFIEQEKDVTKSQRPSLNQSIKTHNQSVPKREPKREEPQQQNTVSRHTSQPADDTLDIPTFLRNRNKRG", "experiment": "Induction of FtsZ polymerization in Bacillus subtilis at 2.5 to 10 ug/ml preincubated with compound followed by GTP addition by absorbance based assay", "conditions": "dose 2.5-10 µg/ml, time 40.0 min, TDE = time-dependent effect"}, "[33]": {"biological_target": "T1, Cell division protein FtsZ (Bacillus subtilis)", "experiment": "Induction of FtsZ polymerization in Bacillus subtilis preincubated for 10 mins followed by GTP addition measured upto 30 mins by absorbance based assay", "conditions": "dose 2.5-10 µg/ml, time 40.0 min"}, "[34]": {"biological_target": "T1, Cell division protein FtsZ (Bacillus subtilis)", "experiment": "Induction of FtsZ polymerization in Bacillus subtilis assessed as bundling of FtsZ protofilaments at 10 ug/ml preincubated for 15 mins followed by GTP addition measured after 10 mins by TEM analysis", "conditions": "dose 10.0 µg/ml, time 25.0 min"}, "[35]": {"tested_on": "Staphylococcus aureus", "experiment": "Induction of membrane potential depolarization in Staphylococcus aureus ATCC25923 measured after 20 mins by diSC35 dye based spectroscopy", "type": "functional, organism-based"}, "[36]": {"tested_on": "Staphylococcus aureus", "experiment": "Disruption of inner membrane in Staphylococcus aureus ATCC25923 measured after 12 mins by PI staining based analysis", "type": "functional, organism-based"}, "[37]": {"tested_on": "Staphylococcus aureus", "experiment": "Disruption of inner membrane in Staphylococcus aureus ATCC25923 by PI staining based analysis", "type": "functional, organism-based", "conditions": "time 12.0 min, TDE = time-dependent effect"}, "[38]": {"tested_on": "Staphylococcus aureus", "experiment": "Induction of morphological change in Staphylococcus aureus ATCC25923 assessed as loss of bacterial membrane integrity at 16 times MIC incubated for 2 hrs by TEM analysis", "type": "functional, organism-based"}, "[39]": {"tested_on": "Staphylococcus aureus", "experiment": "Induction of morphological change in Staphylococcus aureus ATCC25923 assessed as leakage of cell contents at 16 times MIC incubated for 2 hrs by TEM analysis", "type": "functional, organism-based"}, "[40]": {"experiment": "Hemolytic activity in mouse erythrocytes at 128 ug/ml incubated for 1 hr by absorbance based assay", "type": "toxicity, cell-based, Erythrocyte", "conditions": "dose 128 µg/ml, read-out: Activity"}}, "note": "Calls of active or inactive are those of the source. The rule behind the calls is not given here."}
{"smiles": "Cc1ccccc1-c1c[n+](C)c(-c2ccc(C(C)(C)C)cc2)cc1/C=C/c1ccc(O)cc1.[I-]", "values": [{"measurement": "Ratio", "setting": "[1]", "value": 4}, {"measurement": "MBC", "setting": "[2]", "value": 16, "unit": "µg/mL"}, {"measurement": "Ratio", "setting": "[3]", "value": 8}, {"measurement": "MBC", "setting": "[4]", "value": 4, "unit": "µg/mL"}, {"measurement": "Ratio", "setting": "[5]", "value": 16}, {"measurement": "Ratio", "setting": "[6]", "value": 4}, {"measurement": "MBC", "setting": "[7]", "value": 2, "unit": "µg/mL"}, {"measurement": "MBC", "setting": "[8]", "value": 2, "unit": "µg/mL"}, {"measurement": "Ratio", "setting": "[9]", "value": 32}, {"measurement": "MBC", "setting": "[10]", "value": 2, "unit": "µg/mL"}, {"measurement": "MIC", "setting": "[11]", "value": 2, "unit": "µg/mL"}, {"measurement": "MIC", "setting": "[12]", "value": 2, "unit": "µg/mL"}, {"measurement": "MIC", "setting": "[13]", "value": 0.125, "unit": "µg/mL"}, {"measurement": "MIC", "setting": "[14]", "value": 1, "unit": "µg/mL"}, {"measurement": "MIC", "setting": "[15]", "value": 0.125, "unit": "µg/mL"}, {"measurement": "MIC", "setting": "[16]", "value": "> 64", "unit": "µg/mL"}, {"measurement": "MIC", "setting": "[17]", "value": 4, "unit": "µg/mL"}, {"measurement": "MIC", "setting": "[18]", "value": "> 64", "unit": "µg/mL"}, {"measurement": "MIC", "setting": "[19]", "value": 32, "unit": "µg/mL"}, {"measurement": "MIC", "setting": "[20]", "value": 2, "unit": "µg/mL"}, {"measurement": "MIC", "setting": "[21]", "value": 2, "unit": "µg/mL"}, {"measurement": "MIC", "setting": "[22]", "value": 1, "unit": "µg/mL"}, {"measurement": "MIC", "setting": "[23]", "value": 0.062, "unit": "µg/mL"}, {"measurement": "MIC", "setting": "[24]", "value": 1, "unit": "µg/mL"}, {"measurement": "MIC", "setting": "[25]", "value": 0.5, "unit": "µg/mL"}, {"measurement": "MIC", "setting": "[26]", "value": 2, "unit": "µg/mL"}, {"measurement": "MIC", "setting": "[27]", "value": 2, "unit": "µg/mL"}, {"measurement": "fold change (FC)", "setting": "[28]", "value": 2}, {"measurement": "inhibition", "setting": "[29]", "value": "Dose-Dependent Effect"}, {"measurement": "inhibition at 0.5 µg/mL", "setting": "[30]", "value": 39, "unit": "%"}, {"measurement": "Activity", "setting": "[31]", "value": "Active"}, {"measurement": "Activity", "setting": "[32]", "value": "Tde"}, {"measurement": "Activity", "setting": "[33]", "value": "Dose-Dependent Effect"}, {"measurement": "Activity", "setting": "[34]", "value": "Active"}, {"measurement": "Activity", "setting": "[35]", "value": "Dose-Dependent Effect"}, {"measurement": "Activity", "setting": "[36]", "value": "Dose-Dependent Effect"}, {"measurement": "Activity", "setting": "[37]", "value": "Tde"}, {"measurement": "Activity", "setting": "[38]", "value": "Active"}, {"measurement": "Activity", "setting": "[39]", "value": "Active"}, {"measurement": "hemolysis at 1 h, 128 ug/ml", "setting": "[40]", "value": 7.59, "unit": "%"}]}
